According to the NIST ThermoML archive (doi:10.1016/j.fluid.2017.09.003):

Test: mn = molality of the nth substance listed, in mol/kg
Conditions: Liquid, isochoric method

CCCCCC[n+]1ccn(C)c1.O=S(=O)([N-]S(=O)(=O)C(F)(F)F)C(F)(F)F + O=C=O
Conditions	molar volume [m3/mol]
303.15 K, 228.1 kPa, m2 = 0.1549	0.0003078
303.15 K, 400.5 kPa, m2 = 0.277	0.0002962
303.15 K, 642.1 kPa, m2 = 0.4471	0.0002815
303.15 K, 786.2 kPa, m2 = 0.5432	0.0002738
303.15 K, 1036.5 kPa, m2 = 0.726	0.0002604
303.15 K, 1399.2 kPa, m2 = 0.9896	0.000243
303.15 K, 1689 kPa, m2 = 1.194	0.0002316
303.15 K, 1806.5 kPa, m2 = 1.29	0.0002265
303.15 K, 2065.3 kPa, m2 = 1.48	0.000217
303.15 K, 2289.9 kPa, m2 = 1.65	0.0002093
303.15 K, 2463.9 kPa, m2 = 1.782	0.0002037
303.15 K, 2819.3 kPa, m2 = 2.069	0.0001926
303.15 K, 3076.9 kPa, m2 = 2.267	0.0001856
303.15 K, 3555.5 kPa, m2 = 2.65	0.0001736
313.15 K, 337.1 kPa, m2 = 0.1947	0.0003066
313.15 K, 699.4 kPa, m2 = 0.4069	0.0002879
313.15 K, 1209.5 kPa, m2 = 0.7242	0.0002644
313.15 K, 1653.6 kPa, m2 = 1.006	0.0002471
313.15 K, 2111.8 kPa, m2 = 1.285	0.0002306
313.15 K, 2538.3 kPa, m2 = 1.615	0.0002177
313.15 K, 3188.6 kPa, m2 = 2.11	0.0001995
323.15 K, 465.7 kPa, m2 = 0.2272	0.0003063
323.15 K, 850.7 kPa, m2 = 0.4281	0.0002889
323.15 K, 1323.9 kPa, m2 = 0.6731	0.0002706
323.15 K, 1708.8 kPa, m2 = 0.8789	0.0002573
323.15 K, 2180.2 kPa, m2 = 1.152	0.0002419
323.15 K, 2704.6 kPa, m2 = 1.345	0.0002273
323.15 K, 3105.7 kPa, m2 = 1.546	0.0002172
333.15 K, 245.6 kPa, m2 = 0.1044	0.0003209
333.15 K, 519.1 kPa, m2 = 0.2209	0.0003096
333.15 K, 894.3 kPa, m2 = 0.3855	0.0002952
333.15 K, 1364.2 kPa, m2 = 0.6046	0.0002782
333.15 K, 1849.2 kPa, m2 = 0.8295	0.0002632
333.15 K, 2312.2 kPa, m2 = 1.051	0.0002501
333.15 K, 2799.2 kPa, m2 = 1.3	0.0002373
343.15 K, 474.1 kPa, m2 = 0.1783	0.0003165
343.15 K, 952.8 kPa, m2 = 0.3503	0.0003002
343.15 K, 1440.2 kPa, m2 = 0.553	0.0002849
343.15 K, 1937.6 kPa, m2 = 0.7557	0.0002707
343.15 K, 2453.7 kPa, m2 = 0.974	0.0002573
343.15 K, 2938.6 kPa, m2 = 1.181	0.0002461
343.15 K, 3446.9 kPa, m2 = 1.424	0.0002344
353.15 K, 502 kPa, m2 = 0.1643	0.0003208
353.15 K, 987.3 kPa, m2 = 0.3338	0.0003053
353.15 K, 1440.2 kPa, m2 = 0.4916	0.0002925
353.15 K, 1907.3 kPa, m2 = 0.6717	0.0002794
353.15 K, 2419.6 kPa, m2 = 0.8598	0.0002671
353.15 K, 2888.3 kPa, m2 = 1.037	0.0002567

CCCCn1cc[n+](C)c1.O=S(=O)([O-])C(F)(F)F [1-butyl-3-methylimidazolium trifluoromethanesulfonate] + O=C=O
Conditions	molar volume [m3/mol]
303.15 K, 233.6 kPa, m2 = 0.1586	0.0002163
303.15 K, 712 kPa, m2 = 0.5016	0.0002044
303.15 K, 1209.3 kPa, m2 = 0.8577	0.0001937
303.15 K, 1706.3 kPa, m2 = 1.236	0.0001836
303.15 K, 2180.4 kPa, m2 = 1.637	0.0001742
303.15 K, 2663.3 kPa, m2 = 2.038	0.000166
303.15 K, 3188 kPa, m2 = 2.481	0.000158
313.15 K, 244.1 kPa, m2 = 0.1345	0.0002188
313.15 K, 713.2 kPa, m2 = 0.418	0.0002088
313.15 K, 1212.5 kPa, m2 = 0.7087	0.0001997
313.15 K, 1722.9 kPa, m2 = 1.029	0.0001907
313.15 K, 2194.4 kPa, m2 = 1.329	0.0001831
313.15 K, 2669.6 kPa, m2 = 1.632	0.0001761
313.15 K, 3135.3 kPa, m2 = 1.944	0.0001696
323.15 K, 239.4 kPa, m2 = 0.1102	0.0002213
323.15 K, 707.7 kPa, m2 = 0.3453	0.0002129
323.15 K, 1223.5 kPa, m2 = 0.5993	0.0002047
323.15 K, 1721.4 kPa, m2 = 0.8739	0.0001966
323.15 K, 2204.9 kPa, m2 = 1.131	0.0001897
323.15 K, 2697.2 kPa, m2 = 1.397	0.0001832
323.15 K, 3198.1 kPa, m2 = 1.707	0.0001762
333.15 K, 239.9 kPa, m2 = 0.0968	0.0002234
333.15 K, 756.2 kPa, m2 = 0.3124	0.0002157
333.15 K, 1259.5 kPa, m2 = 0.5379	0.0002083
333.15 K, 1767.4 kPa, m2 = 0.7626	0.0002015
333.15 K, 2242.8 kPa, m2 = 0.9814	0.0001953
333.15 K, 2734.2 kPa, m2 = 1.226	0.000189
333.15 K, 3236.7 kPa, m2 = 1.474	0.0001831
343.15 K, 250.3 kPa, m2 = 0.0877	0.0002253
343.15 K, 746.9 kPa, m2 = 0.2655	0.0002189
343.15 K, 1255 kPa, m2 = 0.4535	0.0002126
343.15 K, 1759 kPa, m2 = 0.6555	0.0002063
343.15 K, 2265.7 kPa, m2 = 0.8561	0.0002004
343.15 K, 2732.5 kPa, m2 = 1.072	0.0001946
343.15 K, 3216 kPa, m2 = 1.276	0.0001895

S [hydrogen sulfide] + CCCCn1cc[n+](C)c1.O=S(=O)([O-])C(F)(F)F
Conditions	molar volume [m3/mol]
303.15 K, 172.6 kPa, m1 = 0.5717	0.0001972
303.15 K, 339.1 kPa, m1 = 1.141	0.000178
303.15 K, 491.8 kPa, m1 = 1.715	0.0001633
303.15 K, 691.5 kPa, m1 = 2.517	0.0001472
303.15 K, 857 kPa, m1 = 3.192	0.0001371
303.15 K, 1016.5 kPa, m1 = 3.857	0.0001282
303.15 K, 1178.1 kPa, m1 = 4.512	0.0001212
303.15 K, 1368.5 kPa, m1 = 5.449	0.0001129
303.15 K, 1494.2 kPa, m1 = 6.127	0.000108
313.15 K, 169.3 kPa, m1 = 0.4237	0.0002046
313.15 K, 392.6 kPa, m1 = 1.017	0.0001836
313.15 K, 605 kPa, m1 = 1.634	0.0001669
313.15 K, 813.7 kPa, m1 = 2.295	0.0001529
313.15 K, 1021.5 kPa, m1 = 3.03	0.0001406
313.15 K, 1244.6 kPa, m1 = 3.892	0.0001294
313.15 K, 1455.3 kPa, m1 = 4.807	0.00012
313.15 K, 1592.1 kPa, m1 = 5.49	0.0001142
323.15 K, 188 kPa, m1 = 0.3783	0.000208
323.15 K, 418.4 kPa, m1 = 0.874	0.0001897
323.15 K, 647.6 kPa, m1 = 1.409	0.0001741
323.15 K, 1041.4 kPa, m1 = 2.42	0.0001522
323.15 K, 1294 kPa, m1 = 3.138	0.0001407
323.15 K, 1501.2 kPa, m1 = 3.819	0.0001319
323.15 K, 1614.4 kPa, m1 = 4.192	0.0001272
333.15 K, 196.6 kPa, m1 = 0.3257	0.0002118
333.15 K, 459.2 kPa, m1 = 0.7804	0.0001944
333.15 K, 705.7 kPa, m1 = 1.237	0.0001803
333.15 K, 907.8 kPa, m1 = 1.635	0.00017
333.15 K, 1176.8 kPa, m1 = 2.188	0.0001581
333.15 K, 1400.8 kPa, m1 = 2.685	0.0001492
333.15 K, 1570.7 kPa, m1 = 3.114	0.0001426
343.15 K, 207.6 kPa, m1 = 0.279	0.0002154
343.15 K, 456.9 kPa, m1 = 0.6403	0.000201
343.15 K, 706.7 kPa, m1 = 1.021	0.0001882
343.15 K, 923.5 kPa, m1 = 1.369	0.0001783
343.15 K, 1176.5 kPa, m1 = 1.798	0.0001679
343.15 K, 1391.1 kPa, m1 = 2.179	0.0001599
343.15 K, 1632 kPa, m1 = 2.646	0.0001515
